Test results reported in PubChem BioAssay AID248 (DTP/NCI, 2004).
Values joined by “and” are separate entries in the source; they are usually repeats but may differ in a detail not shown here. Equal entries are not always repeated. Toxic doses and inconclusive results are not listed. Cut-off read from the data, not from the text of the source: active = T/C of 150% or more; inactive = T/C below 125%.

System: L1210 leukemia ip in BDF1 mice, survival T/C
Assay: NCI In Vivo Anticancer Drug Screen. Data for tumor model L1210 Leukemia (intraperitoneal) in B6D2F1 (BDF1) mice
Conditions: endpoint: mean survival time, higher = longer survival
In short: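 Antitumor effect is assessed in tumor-bearing animals. Survival in the compound arm is compared with a vehicle-dosed control arm and expressed as their quotient.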

[1] = dose: 100.0 mg/kg/injection, schedule: Q01DX001 (ip), vehicle: saline
[2] = dose: 200.0 mg/kg/injection, schedule: Q01DX001 (ip), vehicle: saline
[3] = dose: 400.0 mg/kg/injection, schedule: Q01DX001 (ip), vehicle: saline
[4] = dose: 100.0 mg/kg/injection, schedule: Q04DX003 (ip), vehicle: Klucel (hydroxypropylcellulose) (HPC)
[5] = dose: 200.0 mg/kg/injection, schedule: Q04DX003 (ip), vehicle: Klucel (hydroxypropylcellulose) (HPC)
[6] = dose: 400.0 mg/kg/injection, schedule: Q04DX003 (ip), vehicle: Klucel (hydroxypropylcellulose) (HPC)
[7] = dose: 100.0 mg/kg/injection, schedule: Q04DX002 (ip), vehicle: Klucel (hydroxypropylcellulose) (HPC)
[8] = dose: 200.0 mg/kg/injection, schedule: Q04DX002 (ip), vehicle: Klucel (hydroxypropylcellulose) (HPC)
[9] = dose: 400.0 mg/kg/injection, schedule: Q04DX002 (ip), vehicle: Klucel (hydroxypropylcellulose) (HPC)
[10] = dose: 100.0 mg/kg/injection, schedule: Q04DX003 (ip), vehicle: saline with Tween-80
[11] = dose: 200.0 mg/kg/injection, schedule: Q04DX003 (ip), vehicle: saline with Tween-80
[12] = dose: 400.0 mg/kg/injection, schedule: Q04DX003 (ip), vehicle: saline with Tween-80
[13] = dose: 100.0 mg/kg/injection, schedule: Q04DX002 (ip), vehicle: saline with Tween-80
[14] = dose: 200.0 mg/kg/injection, schedule: Q04DX002 (ip), vehicle: saline with Tween-80
[15] = dose: 400.0 mg/kg/injection, schedule: Q04DX002 (ip), vehicle: saline with Tween-80
[16] = dose: 100.0 mg/kg/injection, schedule: Q01DX001 (ip), vehicle: other
[17] = dose: 200.0 mg/kg/injection, schedule: Q01DX001 (ip), vehicle: other
[18] = dose: 400.0 mg/kg/injection, schedule: Q01DX001 (ip), vehicle: other

Measured: T/C

O=C1C(Cl)=C(N2CC2)C(=O)C(Cl)=C1N1CC1
inactive: dose: 0.31 mg/kg/injection, schedule: Q01DX009 (ip), vehicle: alcohol 106 % of control | dose: 0.62 mg/kg/injection, schedule: Q01DX009 (ip), vehicle: alcohol 112 % of control | dose: 1.25 mg/kg/injection, schedule: Q01DX009 (ip), vehicle: alcohol 106 % of control | dose: 1.25 mg/kg/injection, schedule: Q01DX009 (ip), vehicle: saline 113 % of control | dose: 2.5 mg/kg/injection, schedule: Q01DX009 (ip), vehicle: alcohol 112 % of control | dose: 5.0 mg/kg/injection, schedule: Q01DX009 (ip), vehicle: alcohol 118 % of control | dose: 10.0 mg/kg/injection, schedule: Q01DX009 (ip), vehicle: saline 114 % of control

CCOC(=O)NC1CC1
inactive: [1] 93 % of control | [2] 95 % of control | [3] 101 % of control

Cc1cc(N(CCCl)CCCl)ccc1C=Nc1ccc(-c2csc(Cc3ccccc3)n2)c(Cl)c1
inactive: dose: 100.0 mg/kg/injection, schedule: Q01DX001 (sc), vehicle: carboxymethylcellulose (CMC) 100 % of control | dose: 200.0 mg/kg/injection, schedule: Q01DX001 (sc), vehicle: carboxymethylcellulose (CMC) 113 % of control | dose: 400.0 mg/kg/injection, schedule: Q01DX001 (sc), vehicle: carboxymethylcellulose (CMC) 100 % of control

Cc1ccc(NC(=O)OCCOc2ccc(Br)cc2)cc1[N+](=O)[O-]
inactive: [4] 94 % of control | [5] 90 % of control | [6] 94 % of control

COC(OC)C1=C(Cl)C(Cl)=C(Cl)/C1=N\Nc1ccccc1
inactive: [4] 109 % of control | [5] 98 % of control | [6] 100 % of control

Cc1ccc2c(Cl)ccc(Cl)c2n1
inactive: [7] 90 % of control | dose: 100.0 mg/kg/injection, schedule: Q04DX002 (ip), vehicle: carboxymethylcellulose (CMC) 98 % of control and 90 % of control | dose: 100.0 mg/kg/injection, schedule: Q04DX003 (ip), vehicle: carboxymethylcellulose (CMC) 95 % of control | [8] 90 % of control | dose: 200.0 mg/kg/injection, schedule: Q04DX002 (ip), vehicle: carboxymethylcellulose (CMC) 94 % of control and 91 % of control | dose: 200.0 mg/kg/injection, schedule: Q04DX003 (ip), vehicle: carboxymethylcellulose (CMC) 104 % of control | [9] 105 % of control | dose: 400.0 mg/kg/injection, schedule: Q04DX002 (ip), vehicle: carboxymethylcellulose (CMC) 92 % of control

CC(=O)Nc1ccc2c(c1)C(=O)c1cc(NC(C)=O)ccc1-2
inactive: dose: 50.0 mg/kg/injection, schedule: Q01DX009 (ip), vehicle: saline with Tween-80 95 % of control | dose: 100.0 mg/kg/injection, schedule: Q01DX009 (ip), vehicle: saline with Tween-80 95 % of control | [10] 92 % of control | dose: 200.0 mg/kg/injection, schedule: Q01DX009 (ip), vehicle: saline with Tween-80 101 % of control | [11] 86 % of control | [12] 89 % of control

CCOC(=O)N1C2c3ccccc3C3C(C21)N3C(=O)OCC (stereo not drawn)
inactive: [1] 105 % of control | [2] 102 % of control | [3] 108 % of control

O=C1NNCc2c1sc1ccccc21
inactive: [1] 98 % of control | [2] 98 % of control | [3] 102 % of control

Cc1ccc(CO)cc1
inactive: dose: 100.0 mg/kg/injection, schedule: Q01DX009 (ip), vehicle: saline 97 % of control | dose: 100.0 mg/kg/injection, schedule: Q04DX003 (ip), vehicle: saline 106 % of control | dose: 200.0 mg/kg/injection, schedule: Q04DX003 (ip), vehicle: saline 114 % of control | dose: 400.0 mg/kg/injection, schedule: Q01DX009 (ip), vehicle: saline 92 % of control | dose: 400.0 mg/kg/injection, schedule: Q04DX003 (ip), vehicle: saline 106 % of control

O=S(=O)([O-])NC1CCCCC1.O=S(=O)([O-])NC1CCCCC1.[Hg+2].[Hg+2].[Hg+2].[O-2].[O-2]
inactive: dose: 0.5 mg/kg/injection, schedule: Q01DX009 (ip), vehicle: saline with Tween-80 100 % of control | dose: 0.5 mg/kg/injection, schedule: Q04DX003 (ip), vehicle: saline sonified 97 % of control | dose: 1.0 mg/kg/injection, schedule: Q01DX009 (ip), vehicle: saline with Tween-80 94 % of control | dose: 1.0 mg/kg/injection, schedule: Q04DX003 (ip), vehicle: saline sonified 101 % of control | dose: 2.0 mg/kg/injection, schedule: Q01DX009 (ip), vehicle: saline with Tween-80 96 % of control | dose: 2.0 mg/kg/injection, schedule: Q04DX003 (ip), vehicle: saline sonified 94 % of control | dose: 4.0 mg/kg/injection, schedule: Q01DX009 (ip), vehicle: saline with Tween-80 93 % of control

O=C1OC(=O)C2(Br)C3C=CC(CC3)C12Br (stereo not drawn)
inactive: [10] 93 % of control | [11] 96 % of control | [12] 98 % of control

CC1CCC2(NC1)OC1CC3C4CC=C5CC(OC(=O)N(CCCl)CCCl)CCC5(C)C4CCC3(C)C1C2C (stereo not drawn)
inactive: dose: 100.0 mg/kg/injection, schedule: Q01DX001 (sc), vehicle: steriod suspending solution 97 % of control | dose: 200.0 mg/kg/injection, schedule: Q01DX001 (sc), vehicle: steriod suspending solution 123 % of control | dose: 400.0 mg/kg/injection, schedule: Q01DX001 (sc), vehicle: steriod suspending solution 97 % of control

CSc1ccc(OC(=O)Nc2cccc(Cl)c2)cc1
inactive: [13] 100 % of control | [14] 93 % of control | [15] 104 % of control

Cc1cc(=O)[nH]c(N2CCOCC2)n1
inactive: [1] 106 % of control | [2] 101 % of control

O=NN(CC(=O)O)c1ccc2ccccc2c1
inactive: [13] 90 % of control | [14] 90 % of control | [15] 93 % of control

CCSc1ncc2cnccn12
inactive: dose: 25.0 mg/kg/injection, schedule: Q01DX009 (ip), vehicle: water 91 % of control | dose: 50.0 mg/kg/injection, schedule: Q01DX009 (ip), vehicle: water 100 % of control | dose: 100.0 mg/kg/injection, schedule: Q04DX003 (ip), vehicle: water 91 % of control

CCCCCCC1N(Cc2ccccc2N(C)C)CCCN1Cc1ccccc1N(C)C
inactive: dose: 75.0 mg/kg/injection, schedule: Q01DX001 (ip), vehicle: saline 94 % of control | dose: 150.0 mg/kg/injection, schedule: Q01DX001 (ip), vehicle: saline 94 % of control | dose: 300.0 mg/kg/injection, schedule: Q01DX001 (ip), vehicle: saline 89 % of control

Cc1cccc(NC(=O)NCCCl)c1
inactive: [16] 97 % of control | dose: 100.0 mg/kg/injection, schedule: Q01DX009 (ip), vehicle: Klucel (hydroxypropylcellulose) (HPC) 95 % of control | [7] 102 % of control | [17] 105 % of control | dose: 200.0 mg/kg/injection, schedule: Q01DX009 (ip), vehicle: Klucel (hydroxypropylcellulose) (HPC) 92 % of control | [8] 113 % of control | [18] 97 % of control | dose: 400.0 mg/kg/injection, schedule: Q01DX009 (ip), vehicle: Klucel (hydroxypropylcellulose) (HPC) 92 % of control | [9] 102 % of control

Oc1c(Cl)cc(Cl)cc1C=Nc1ccc(Br)cn1
inactive: [16] 95 % of control | [17] 101 % of control | [18] 95 % of control
